Where a name gives a salt, the structure may show the parent alone. Values belong to the compound of their own block, whether it stands above or below them.
Columns and labels:
[1] = Benazepril HCl API solution stability at different pH and temperature (HPLC % assay); format: physicochemical
[2] = Pantoprazole Sodium solution stability at different pH and temperature (HPLC % assay); format: physicochemical

% Assay of Benazepril HCl ([1]; pH 1.2, 22° C., Initial): 101%
% Assay of Benazepril HCl ([1]; pH 1.2, 40° C., 2 Hour): 100%
% Assay of Benazepril HCl ([1]; pH 1.2, 40° C., 4 Hour): 100%
% Assay of Benazepril HCl ([1]; pH 1.2, 40° C., 24 Hour): 99%
% Assay of Benazepril HCl ([1]; pH 3, 22° C., Initial): 100%
% Assay of Benazepril HCl ([1]; pH 3, 40° C., 2 Hour): 99%
% Assay of Benazepril HCl ([1]; pH 3, 40° C., 4 Hour): 99%
% Assay of Benazepril HCl ([1]; pH 3, 40° C., 24 Hour): 98%
% Assay of Benazepril HCl ([1]; pH 4, 22° C., Initial): 100%
% Assay of Benazepril HCl ([1]; pH 4, 40° C., 2 Hour): 99%
% Assay of Benazepril HCl ([1]; pH 4, 40° C., 4 Hour): 99%
% Assay of Benazepril HCl ([1]; pH 4, 40° C., 24 Hour): 98%
% Assay of Benazepril HCl ([1]; pH 7, 22° C., Initial): 100%
% Assay of Benazepril HCl ([1]; pH 7, 40° C., 2 Hour): 100%
% Assay of Benazepril HCl ([1]; pH 7, 40° C., 4 Hour): 100%
% Assay of Benazepril HCl ([1]; pH 7, 40° C., 24 Hour): 97%
% Assay of Benazepril HCl ([1]; pH 9, 22° C., Initial): 101%
% Assay of Benazepril HCl ([1]; pH 9, 40° C., 2 Hour): 99%
% Assay of Benazepril HCl ([1]; pH 9, 40° C., 4 Hour): 99%
% Assay of Benazepril HCl ([1]; pH 9, 40° C., 24 Hour): 91%
Compound: CCOC(=O)[C@H](CCc1ccccc1)N[C@H]1CCc2ccccc2N(CC(=O)O)C1=O [Benazepril HCl]

% Assay of Pantoprazole Sodium ([2]; pH 1.2, 22° C., 15 min): 27%
% Assay of Pantoprazole Sodium ([2]; pH 1.2, 22° C., 30 min): 13%
% Assay of Pantoprazole Sodium ([2]; pH 1.2, 22° C., 60 min): 7%
% Assay of Pantoprazole Sodium ([2]; pH 1.2, 22° C., 120 min): 5%
% Assay of Pantoprazole Sodium ([2]; pH 1.2, 22° C., Initial): 88%
% Assay of Pantoprazole Sodium ([2]; pH 1.2, 40° C., 15 min): 17%
% Assay of Pantoprazole Sodium ([2]; pH 1.2, 40° C., 30 min): 6%
% Assay of Pantoprazole Sodium ([2]; pH 1.2, 40° C., 60 min): 4%
% Assay of Pantoprazole Sodium ([2]; pH 1.2, 40° C., 120 min): 3%
% Assay of Pantoprazole Sodium ([2]; pH 3.0, 22° C., 15 min): 32%
% Assay of Pantoprazole Sodium ([2]; pH 3.0, 22° C., 30 min): 20%
% Assay of Pantoprazole Sodium ([2]; pH 3.0, 22° C., 60 min): 5%
% Assay of Pantoprazole Sodium ([2]; pH 3.0, 22° C., 120 min): 1%
% Assay of Pantoprazole Sodium ([2]; pH 3.0, 22° C., Initial): 81%
% Assay of Pantoprazole Sodium ([2]; pH 3.0, 40° C., 15 min): 3%
% Assay of Pantoprazole Sodium ([2]; pH 3.0, 40° C., 30 min): 2%
% Assay of Pantoprazole Sodium ([2]; pH 3.0, 40° C., 60 min): 2%
% Assay of Pantoprazole Sodium ([2]; pH 3.0, 40° C., 120 min): 1%
% Assay of Pantoprazole Sodium ([2]; pH 4.5, 22° C., 15 min): 97%
% Assay of Pantoprazole Sodium ([2]; pH 4.5, 22° C., 30 min): 96%
% Assay of Pantoprazole Sodium ([2]; pH 4.5, 22° C., 60 min): 94%
% Assay of Pantoprazole Sodium ([2]; pH 4.5, 22° C., 120 min): 89%
% Assay of Pantoprazole Sodium ([2]; pH 4.5, 22° C., Initial): 98%
% Assay of Pantoprazole Sodium ([2]; pH 4.5, 40° C., 15 min): 92%
% Assay of Pantoprazole Sodium ([2]; pH 4.5, 40° C., 30 min): 89%
% Assay of Pantoprazole Sodium ([2]; pH 4.5, 40° C., 60 min): 79%
% Assay of Pantoprazole Sodium ([2]; pH 4.5, 40° C., 120 min): 64%
% Assay of Pantoprazole Sodium ([2]; pH 5.5, 22° C., 15 min): 98%
% Assay of Pantoprazole Sodium ([2]; pH 5.5, 22° C., 30 min): 92%
% Assay of Pantoprazole Sodium ([2]; pH 5.5, 22° C., 60 min): 94%
% Assay of Pantoprazole Sodium ([2]; pH 5.5, 22° C., 120 min): 88%
% Assay of Pantoprazole Sodium ([2]; pH 5.5, 22° C., Initial): 98%
% Assay of Pantoprazole Sodium ([2]; pH 5.5, 40° C., 15 min): 97%
% Assay of Pantoprazole Sodium ([2]; pH 5.5, 40° C., 30 min): 86%
% Assay of Pantoprazole Sodium ([2]; pH 5.5, 40° C., 60 min): 77%
% Assay of Pantoprazole Sodium ([2]; pH 5.5, 40° C., 120 min): 53%
Compound: COc1ccnc(C[S+]([O-])c2nc3ccc(OC(F)F)cc3[nH]2)c1OC (centres unmarked) [Pantoprazole Sodium]
